One assay has as its system HRV16. The assay is described as follows: HRV16 HeLa EC50. It counts as cell-based, human rhinovirus. The conditions noted are these: Human rhinovirus sp., HRV16; H1-HeLa cells, 96 h, 33° C. As for the experimental part: H1-HeLa cells, cultured in complete DMEM medium containing 10% heat-inactivated FBS and 1% Penicillin/Streptomycin, were seeded in 96 well plates at 3000 cells/well one day prior to compound dosing and infection. The antiviral activity of each compound was measured in triplicate. Compounds were added directly to the cell cultures in serial 3-fold dilutions using the HP300 digital dispenser (Hewlett Packard, Palo Alto, CA) immediately prior to infection. The plates were transferred to BSL-2 containment and the appropriate dilution of virus stock, previously determined by titration and prepared in cell culture media, was added to test plates containing cells and serially diluted compounds. Each plate included 6 wells of infected untreated cells and 6 wells of uninfected cells that served as 0% and 100% virus inhibition control, respectively. Following the infection, test plates were incubated for 96 h in a tissue culture incubator set to 33° C./5% CO2. Following incubation, the H1-HeLa cells were removed from incubation and allowed to equilibrate to 25° C. Cell viability was determined by removing 100 μL of culture medium and adding 100 μL of Cell-Titer Glo viability reagent. The mixtures were incubated on a shaker for 10 minutes at 25° C., and the luminescence signal was quantified on an Envision luminescence plate reader.

Another assay concerns RSV strain A2. In words: RSV HEp-2 EC50, infectious cytopathic cell protection assay. It counts as cell-based. Particulars: human respiratory syncytial virus, 96 h; RSV A2 in HEp-2 cells, 4 days, Cell TiterGlo. As to the method: Antiviral activity against RSV is determined using an infectious cytopathic cell protection assay in HEp-2 cells. In this assay, compounds inhibiting viral infection and/or replication produce a cytoprotective effect against the virus-induced cell killing that can be quantified using a cell viability reagent. The techniques used here are novel adaptations of methods described in published literature (Chapman et al., Antimicrob Agents Chemother. 2007, 51(9):3346-53.).
HEp-2 cells are obtained from ATCC (Manassas, VI) and maintained in MEM media supplemented with 10% fetal bovine serum and penicillin/streptomycin. Cells are passaged twice a week and kept at subconfluent stage. Commercial stock of RSV strain A2 (Advanced Biotechnologies, Columbia, MD) is titered before compound testing to determine the appropriate dilution of the virus stock that generates desirable cytopathic effect in HEp-2 cells.
For antiviral tests, HEp-2 cells are grown in large cell culture flasks to near confluency but not fully so. The compounds to be tested are prediluted in DMSO in 384-well compound dilution plates, either in an 8 or 40 sample per plate standardized dose response format. 3-fold serial dilution increments of each test compound are prepared in the plates and test samples are transferred via acoustic transfer apparatus (Echo, Labcyte) at 100 nL per well into cell culture assay 384-well plates. Each compound dilution is transferred in single or quadruplicate samples into dry assay plates, which are stored until assay is ready to go. The positive and negative controls are laid out in opposite on ends of the plate in vertical blocks (1 column).
Subsequently, an infectious mixture is prepared using an appropriate dilution of virus stock previously determined by titration with cells at a density of 50,000/mL and 20 μL/well is added to test plates w/compounds via automation (uFlow, Biotek). Each plate includes negative and positive controls (16 replicates each) to create 0% and 100% virus inhibition standards, respectively. Following the infection with RSV, testing plates are incubated for 4 days in a 37° C. cell culture incubator. After the incubation, a cell viability reagent, Cell TiterGlo (Promega, Madison, WI) is added to the assay plates, which are incubated briefly, and a luminescent readout is measured (Envision, Perkin Elmer) in all the assay plates. The RSV-induced cytopathic effect, percentage inhibition, is determined from the levels of remaining cell viability. […] Various potent anti-RSV tool compounds are used as positive controls for antiviral activity.

The subject of the next assay is RSV A2. In words: RSV NHBE EC50, RSV A2 antiviral assay. It counts as cell-based. The conditions noted are these: human respiratory syncytial virus, 96 h; RSV A2 in NHBE cells, 4 days. As for the experimental part:
Normal human bronchial epithelial (NHBE) cells were purchased from Lonza (Walkersville, MD, Cat #CC-2540) and cultured in Bronchial Epithelial Growth Media (BEGM) (Lonza, Walkersville, MD, Cat #CC-3170). The cells were passaged 1-2 times per week to maintain <80% confluency. The NHBE cells were discarded after 6 passages in culture.
To conduct the RSV A2 antiviral assay, NHBE cells were plated in 96-well plates at a density of 7,500 cells per well in BEGM and allowed to attach overnight at 37° C. Following attachment, 100 μL of cell culture media was removed and 3-fold serially diluted compound was added using a Hewlett-Packard D300 Digital Dispenser. The final concentration of DMSO was normalized to 0.05%. Following compound addition, the NHBE cells were infected by the addition of 100 μL of RSV A2 at a titer of 1×10^4.5 tissue culture infectious doses/mL in BEGM and then incubated at 37° C. for 4 days. The NHBE cells were then allowed to equilibrate to 25° C. and cell viability was determined by removing 100 μL of culture medium and adding 100 μL of Cell-Titer Glo viability reagent. The mixtures were incubated for 10 minutes at 25° C., and the luminescence signal was quantified on an Envision luminescence plate reader.

A further assay relates to HRV1a. In words: HRV1A HeLa EC50. It counts as cell-based, human rhinovirus. The conditions noted are these: Human rhinovirus sp., HRV1A, HeLa, 96 h, read-out: HRV1A HeLa EC50. As to the method:
(§1) H1-HeLa cells, cultured in complete RPMI 1640 medium containing 10% heat-inactivated FBS and 1% Penicillin/Streptomycin, were seeded in 96 well plates at 5000 cells/well one day prior to compound dosing and infection. The antiviral activity of each compound was measured in triplicate. Compounds were added directly to the cell cultures in serial 3-fold dilutions using the HP300 digital dispenser (Hewlett Packard, Palo Alto, CA) immediately prior to infection. The plates were transferred to BSL-2 containment and 100 μL of 1/4000 dilution of HRV1a virus stock was added to each well containing cells and serially diluted compounds. Each plate included 6 wells of infected untreated cells and 6 wells of cells containing 5 μM Rupintrivir that served as 0% and 100% virus inhibition control, respectively. Following the infection, test plates were incubated for 96 h in a tissue culture incubator set to 37° C./5% CO2. Following incubation, the H1-HeLa cells were removed from incubation and allowed to equilibrate to 25° C. Cell viability was determined by removing 100 μL of culture medium and adding 100 μL of Cell-Titer Glo viability reagent. The mixtures were incubated on a shaker for 10 minutes at 25° C., and the luminescence signal was quantified on an Envision luminescence plate reader.

The subject of a further assay is HRV14. The assay is described as follows: HRV14 HeLa EC50. The class given is cell-based, human rhinovirus. The conditions noted are these: Human rhinovirus sp., HRV14; H1-HeLa cells, 96 h, 37° C. As for the experimental part: as §1, with “HRV14” for “HRV1a”

pEC50: −log10 of the molar value.

The record followed here is patent US20250034186A1, “ANTIVIRAL COMPOUNDS” (priority 2020, published 2025).

By pEC50 is commonly meant the negative decadic logarithm of the EC50, by convention in mol/L. Consider `C[C@H](N[P@@](=O)(OC[C@@]1(C#N)O[C@@H](c2ccc3c(N)ncnn23)[C@H](O)[C@@H]1O)Oc1ccccc1)C(=O)OC1CCCCC1` (single isomer, unassigned) [Formula Ib], for which the pEC50 in the assay on HRV16 is 6.18; in the assay on RSV strain A2, 5.56; in the assay with RSV A2 it was 6.20.
With `CC(C)OC(=O)[C@H](C)NP(=O)(OC[C@@]1(C#N)O[C@@H](c2ccc3c(N)ncnn23)[C@H](O)[C@@H]1O)Oc1ccccc1` (stereo partly drawn) [Compound 3, isopropyl ((((2R,3S,4R,5S)-5-(4-aminopyrrolo[2,1-f][1,2,4]triazin-7-yl)-2-cyano-3,4-dihydroxytetrahydrofuran-2-yl)methoxy)(phenoxy)phosphoryl)-L-alaninate], the negative logarithm of the EC50 (pEC50) is 6.13 in the assay with HRV1a; 5.85 in the assay with HRV16; 6.33 in the assay on RSV strain A2; 5.94 in the assay with RSV A2; 5.74 in the assay on HRV14.
In the case of `CC(C)OC(=O)[C@H](C)N[P@](=O)(OC[C@@]1(C#N)O[C@@H](c2ccc3c(N)ncnn23)[C@H](O)[C@@H]1O)Oc1ccccc1` [Compound 4, (S)-isopropyl 2-(((S)-(((2R,3S,4R,5S)-5-(4-aminopyrrolo[2,1-f][1,2,4]triazin-7-yl)-2-cyano-3,4-dihydroxytetrahydrofuran-2-yl)methoxy)(phenoxy)phosphoryl)amino)propanoate], the negative-log EC50 (pEC50) with HRV16 was 6.02; in the assay on RSV strain A2 it was 6.47; in the assay on RSV A2 it was 6.06.
On to `CCC(CC)OC(=O)[C@H](C)NP(=O)(OC[C@@]1(C#N)O[C@@H](c2ccc3c(N)ncnn23)[C@H](O)[C@@H]1O)Oc1ccccc1` (stereo partly drawn) [Compound 5, (2S)-pentan-3-yl 2-(((((2R,3S,4R,5S)-5-(4-aminopyrrolo[2,1-f][1,2,4]triazin-7-yl)-2-cyano-3,4-dihydroxytetrahydrofuran-2-yl)methoxy)(phenoxy)phosphoryl)amino)propanoate], for which the negative logarithm of the EC50 (pEC50) in the assay on HRV1a is 5.79; in the assay with HRV16, 5.50; with RSV strain A2, 5.76; in the assay on RSV A2 it was 5.91; with HRV14, 5.46.
On to `C[C@H](NP(=O)(OC[C@@]1(C#N)O[C@@H](c2ccc3c(N)ncnn23)[C@H](O)[C@@H]1O)Oc1ccccc1)C(=O)OC1CCCCC1` (stereo partly drawn) [Formula Ia, (2S)-cyclohexyl 2-(((((2R,3S,4R,5S)-5-(4-aminopyrrolo[2,1-f][1,2,4]triazin-7-yl)-2-cyano-3,4-dihydroxytetrahydrofuran-2-yl)methoxy)(phenoxy)phosphoryl)amino)propanoate], for which the pEC50 is 6.29 with HRV16, 7.02 with RSV strain A2 and 7.12 with RSV A2.
